Source: patent publication US20240067693A1, “POLYPEPTIDES AND USES THEREOF” (MEDIMMUNE LIMITED, priority 2020, published 2024)
Numbered stars: 1 amine (or outer) side, 2 acyl side, 3 side chain; on linkers, the order of the positions; unused ones are H or OH. Bridge positions count the residues as written; N and C are the ends. Square brackets hold non-standard residues; d marks the D form. Side chains are listed from the residue outwards. Peptide text beside a SMILES is read from it. * marks the point of attachment. C18 diacid = O=C(O)CCCCCCCCCCCCCCCCC(=O)*; γGlu = O=C(O)[C@H](CCC(=O)[*:2])N[*:1]; Aib = CC(C)(N)C(=O)O

Tests used:
[1] = target: T1, human calcitonin receptor (hCTR) (Homo sapiens, UniProt P30988); assay: cAMP production in 1321N1 cells with stable recombinant expression of human calcitonin receptor (hCTR); type: cell-based; conditions: cAMP, 1321N1 cells, assay buffer with 0.1% BSA; read-out: EC50 (pM) hCTR
T1 construct: expressed in transfected cells
T1 sequence (P30988 25-474): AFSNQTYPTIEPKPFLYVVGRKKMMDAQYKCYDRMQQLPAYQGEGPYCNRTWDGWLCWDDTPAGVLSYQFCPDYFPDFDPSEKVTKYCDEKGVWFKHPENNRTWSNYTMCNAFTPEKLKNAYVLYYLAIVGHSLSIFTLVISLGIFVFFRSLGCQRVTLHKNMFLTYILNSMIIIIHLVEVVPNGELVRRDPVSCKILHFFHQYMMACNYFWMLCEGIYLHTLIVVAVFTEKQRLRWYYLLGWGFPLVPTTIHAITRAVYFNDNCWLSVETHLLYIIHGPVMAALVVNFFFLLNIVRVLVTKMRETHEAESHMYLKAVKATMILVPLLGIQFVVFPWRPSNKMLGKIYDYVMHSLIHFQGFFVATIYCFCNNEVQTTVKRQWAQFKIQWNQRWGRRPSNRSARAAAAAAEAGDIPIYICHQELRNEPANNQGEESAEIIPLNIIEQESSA
In short: (§1)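 Receptor-expressing cells (human receptors in 1321N1, rat receptors in HEK) incubated 30 min at room temperature with peptide in HBSS/HEPES pH 7.4, 0.1% BSA, 0.5 mM IBMX. cAMP read by HTRF; EC50 from 4-parameter fit as % of maximal amylin or calcitonin response.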

[2] = target: T2, human amylin receptor (calcitonin receptor co-expressed with receptor activity modifying protein, RAMP3) (hAMYR3) (Homo sapiens, UniProt O60896+P30988); assay: cAMP production in 1321N1 cells with stable recombinant expression of human amylin receptor (hAMYR3); type: cell-based; conditions: for Ratio (selectivity hAMYR vs hCTR, ratio of EC50 values at the two receptors): EC50 hCTR / EC50 hAMYR3; for EC50: cAMP, 1321N1 cells, assay buffer with 0.1% BSA, read-out: EC50 (pM) hAMYR3
T2 construct: expressed in transfected cells
T2 sequence (P30988 25-474): T1 sequence (P30988 25-474)
T2 sequence (O60896 24-148 partner): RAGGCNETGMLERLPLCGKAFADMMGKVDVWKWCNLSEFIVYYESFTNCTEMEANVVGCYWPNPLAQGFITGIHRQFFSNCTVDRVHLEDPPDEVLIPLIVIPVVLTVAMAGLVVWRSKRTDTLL
In short: as §1

| EC50 [1] [pM] | Ratio (selectivity hAMYR vs hCTR, ratio of EC50 values at the two receptors) [2] | EC50 [2] [pM] | SMILES |
| --- | --- | --- | --- |
| 972 | 1 | 942 | CC[C@H](C)[C@H](NC(=O)[C@@H]1CCCN1C(=O)CNC(=O)[C@H](Cc1ccccc1)NC(=O)[C@H](CC(N)=O)NC(=O)[C@H](CC(N)=O)NC(=O)[C@H](CO)NC(=O)[C@H](CO)NC(=O)[C@H](Cc1c[nH]cn1)NC(=O)C(C)(C)NC(=O)[C@H](CC(C)C)NC(=O)[C@H](Cc1ccccc1)NC(=O)[C@H](CC(N)=O)NC(=O)[C@H](C)NC(=O)[C@H](CC(C)C)NC(=O)[C@H](CCCNC(=N)N)NC(=O)[C@H](CCC(N)=O)NC(=O)[C@@H](NC(=O)[C@H](C)NC(=O)[C@@H]1CSSC[C@H](NC(=O)[C@H](CCCCN)NC(=O)[C@@H](N)CCCCNC(=O)CC[C@H](NC(=O)CCCCCCCCCCCCCCCCC(=O)O)C(=O)O)C(=O)N[C@@H](CC(N)=O)C(=O)N[C@@H]([C@@H](C)O)C(=O)N[C@@H](C)C(=O)N[C@@H]([C@@H](C)O)C(=O)N1)[C@@H](C)O)C(=O)N[C@@H](CC(C)C)C(=O)N1CCC[C@H]1C(=O)N1CCC[C@H]1C(=O)N[C@H](C(=O)NC(C)(C)C(=O)N[C@H](C(=O)NCC(=O)N[C@@H](CO)C(=O)N[C@@H](CC(N)=O)C(=O)N[C@H](C(=O)N[C@@H](Cc1ccc(O)cc1)C(N)=O)[C@@H](C)O)C(C)C)[C@@H](C)O [Peptide 98, K(γE-C18diacid)K[CNTATC]ATQRLANFL(Aib)HSSNNFGPILPPT(Aib)VGSNTY-amide] (H-K([γGlu-C18 diacid])KCNTATCATQRLANFL[Aib]HSSNNFGPILPPT[Aib]VGSNTY-NH2; disulfide 3-8; N-terminus assumed) |
| 1820 | 0.5 | 3800 | CC[C@H](C)[C@H](NC(=O)[C@@H]1CCCN1C(=O)CNC(=O)[C@H](Cc1ccccc1)NC(=O)[C@H](CC(N)=O)NC(=O)[C@H](CC(N)=O)NC(=O)[C@H](CO)NC(=O)[C@H](CO)NC(=O)[C@H](Cc1c[nH]cn1)NC(=O)C(C)(C)NC(=O)[C@H](CC(C)C)NC(=O)[C@H](Cc1ccccc1)NC(=O)[C@H](CC(N)=O)NC(=O)[C@H](C)NC(=O)[C@H](CC(C)C)NC(=O)[C@H](CCCNC(=N)N)NC(=O)[C@H](CCC(N)=O)NC(=O)[C@@H](NC(=O)[C@H](C)NC(=O)[C@@H]1CSSC[C@H](NC(=O)[C@H](CCCCN)NC(=O)[C@@H](N)CCCCNC(=O)CC[C@H](NC(=O)CCCCCCCCCCCCCCCCC(=O)O)C(=O)O)C(=O)N[C@@H](CC(N)=O)C(=O)N[C@@H]([C@@H](C)O)C(=O)N[C@@H](C)C(=O)N[C@@H]([C@@H](C)O)C(=O)N1)[C@@H](C)O)C(=O)N[C@@H](CC(C)C)C(=O)N1CCC[C@H]1C(=O)N1CCC[C@H]1C(=O)N[C@H](C(=O)N[C@@H](CC(N)=O)C(=O)NC(C)(C)C(=O)NCC(=O)N[C@@H](CO)C(=O)N[C@@H](CC(N)=O)C(=O)N[C@H](C(=O)N[C@@H](Cc1ccc(O)cc1)C(N)=O)[C@@H](C)O)[C@@H](C)O [Peptide 99, K(γE-C18diacid)K[CNTATC]ATQRLANFL(Aib)HSSNNFGPILPPTN(Aib)GSNTY-amide] (H-K([γGlu-C18 diacid])KCNTATCATQRLANFL[Aib]HSSNNFGPILPPTN[Aib]GSNTY-NH2; disulfide 3-8; N-terminus assumed) |
| 459 | 1 | 364 | CC[C@H](C)[C@H](NC(=O)[C@@H]1CCCN1C(=O)CNC(=O)[C@H](Cc1ccccc1)NC(=O)[C@H](CC(N)=O)NC(=O)[C@H](CC(N)=O)NC(=O)[C@H](CO)NC(=O)[C@H](CO)NC(=O)[C@H](Cc1c[nH]cn1)NC(=O)C(C)(C)NC(=O)[C@H](CC(C)C)NC(=O)[C@H](Cc1ccccc1)NC(=O)[C@H](CC(N)=O)NC(=O)[C@H](C)NC(=O)[C@H](CC(C)C)NC(=O)[C@H](CCCNC(=N)N)NC(=O)[C@H](CCC(N)=O)NC(=O)[C@@H](NC(=O)[C@H](C)NC(=O)[C@@H]1CSSC[C@H](NC(=O)[C@H](CCCCN)NC(=O)[C@@H](N)CCCCNC(=O)CC[C@H](NC(=O)CCCCCCCCCCCCCCCCC(=O)O)C(=O)O)C(=O)N[C@@H](CC(N)=O)C(=O)N[C@@H]([C@@H](C)O)C(=O)N[C@@H](C)C(=O)N[C@@H]([C@@H](C)O)C(=O)N1)[C@@H](C)O)C(=O)N[C@@H](CC(C)C)C(=O)N1CCC[C@H]1C(=O)N1CCC[C@H]1C(=O)N[C@H](C(=O)N[C@@H](CC(N)=O)C(=O)N[C@H](C(=O)NC(C)(C)C(=O)N[C@@H](CO)C(=O)N[C@@H](CC(N)=O)C(=O)N[C@H](C(=O)N[C@@H](Cc1ccc(O)cc1)C(N)=O)[C@@H](C)O)C(C)C)[C@@H](C)O [Peptide 100, K(γE-C18diacid)K[CNTATC]ATQRLANFL(Aib)HSSNNFGPILPPTNV(Aib)SNTY-amide] (H-K([γGlu-C18 diacid])KCNTATCATQRLANFL[Aib]HSSNNFGPILPPTNV[Aib]SNTY-NH2; disulfide 3-8; N-terminus assumed) |
| 441 | 2 | 177 | CC[C@H](C)[C@H](NC(=O)[C@@H]1CCCN1C(=O)CNC(=O)[C@H](Cc1ccccc1)NC(=O)[C@H](CC(N)=O)NC(=O)[C@H](CC(N)=O)NC(=O)[C@H](CO)NC(=O)[C@H](CO)NC(=O)[C@H](Cc1c[nH]cn1)NC(=O)C(C)(C)NC(=O)[C@H](CC(C)C)NC(=O)[C@H](Cc1ccccc1)NC(=O)[C@H](CC(N)=O)NC(=O)[C@H](C)NC(=O)[C@H](CC(C)C)NC(=O)[C@H](CCCNC(=N)N)NC(=O)[C@H](CCC(N)=O)NC(=O)[C@@H](NC(=O)[C@H](C)NC(=O)[C@@H]1CSSC[C@H](NC(=O)[C@H](CCCCN)NC(=O)[C@@H](N)CCCCNC(=O)CC[C@H](NC(=O)CCCCCCCCCCCCCCCCC(=O)O)C(=O)O)C(=O)N[C@@H](CC(N)=O)C(=O)N[C@@H]([C@@H](C)O)C(=O)N[C@@H](C)C(=O)N[C@@H]([C@@H](C)O)C(=O)N1)[C@@H](C)O)C(=O)N[C@@H](CC(C)C)C(=O)N1CCC[C@H]1C(=O)N1CCC[C@H]1C(=O)N[C@H](C(=O)N[C@@H](CC(N)=O)C(=O)N[C@H](C(=O)NCC(=O)NC(C)(C)C(=O)N[C@@H](CC(N)=O)C(=O)N[C@H](C(=O)N[C@@H](Cc1ccc(O)cc1)C(N)=O)[C@@H](C)O)C(C)C)[C@@H](C)O [Peptide 101, K(γE-C18diacid)K[CNTATC]ATQRLANFL(Aib)HSSNNFGPILPPTNVG(Aib)NTY-amide] (H-K([γGlu-C18 diacid])KCNTATCATQRLANFL[Aib]HSSNNFGPILPPTNVG[Aib]NTY-NH2; disulfide 3-8; N-terminus assumed) |
| 1630 | 3 | 479 | CC[C@H](C)[C@H](NC(=O)[C@@H]1CCCN1C(=O)CNC(=O)[C@H](Cc1ccccc1)NC(=O)[C@H](CC(N)=O)NC(=O)[C@H](CC(N)=O)NC(=O)[C@H](CO)NC(=O)[C@H](CO)NC(=O)[C@H](Cc1c[nH]cn1)NC(=O)C(C)(C)NC(=O)[C@H](CC(C)C)NC(=O)[C@H](Cc1ccccc1)NC(=O)[C@H](CC(N)=O)NC(=O)[C@H](C)NC(=O)[C@H](CC(C)C)NC(=O)[C@H](CCCNC(=N)N)NC(=O)[C@H](CCC(N)=O)NC(=O)[C@@H](NC(=O)[C@H](C)NC(=O)[C@@H]1CSSC[C@H](NC(=O)[C@H](CCCCN)NC(=O)[C@@H](N)CCCCNC(=O)CC[C@H](NC(=O)CCCCCCCCCCCCCCCCC(=O)O)C(=O)O)C(=O)N[C@@H](CC(N)=O)C(=O)N[C@@H]([C@@H](C)O)C(=O)N[C@@H](C)C(=O)N[C@@H]([C@@H](C)O)C(=O)N1)[C@@H](C)O)C(=O)N[C@@H](CC(C)C)C(=O)N1CCC[C@H]1C(=O)N1CCC[C@H]1C(=O)N[C@H](C(=O)N[C@@H](CC(N)=O)C(=O)N[C@H](C(=O)NCC(=O)N[C@@H](CO)C(=O)NC(C)(C)C(=O)N[C@H](C(=O)N[C@@H](Cc1ccc(O)cc1)C(N)=O)[C@@H](C)O)C(C)C)[C@@H](C)O [Peptide 102, K(γE-C18diacid)K[CNTATC]ATQRLANFL(Aib)HSSNNFGPILPPTNVGS(Aib)TY-amide] (H-K([γGlu-C18 diacid])KCNTATCATQRLANFL[Aib]HSSNNFGPILPPTNVGS[Aib]TY-NH2; disulfide 3-8) |
